Assay results taken from patent US8173768B2, “Peptides having antimicrobial and neurotrophic activity and uses thereof” (priority 2009, dated 2012).
Bridge positions count the residues as written; N and C are the ends. Square brackets hold non-standard residues; d marks the D form. Ends that are not written are not given here. Peptide text beside a SMILES is read from it. Phe(ol) = N[C@H](CO)Cc1ccccc1; Aib = CC(C)(N)C(=O)O

Columns and labels:
[1] = pore-forming activity (dissipation of membrane potential in liposomes); type: biochemical
Experimental: Antimicrobial assays: After each purification step, antibacterial activity was monitored by a solid plate assay as described in previous studies (14). The minimal inhibitory concentration (MIC) and the minimal bactericidal concentration (MBC) were determined according to the method of Hancock (http://cmdr.ubc.ca/bobh/showmethod.php?methodid=79). Permeabilization of bacterial membranes and pore-forming activity were assayed as previously described (Herbst, R et al. (2002), J Biol Chem 277:22353-22360; Leippe, M. et al. 1991. Proc Natl Acad Sci USA 88:7659-7663).
No activity was found towards the Gram negative A. hydrophila at the same concentration. […] Since neuromacin contains four histidine residues in its primary structure (in contrast to none in theromacin), we evaluated the effect of a more acidic pH, at which the histidine residues are protonated, on the membrane-permeabilizing activity (FIG. 5B). […] Similar activity against the Gram-negative representative E. coli was not detected up to a neuromacin concentration of 25 μM (data not shown). We also measured the pore-forming activity of neuromacin to further characterize its mode of action by using a minimalistic membrane system. More precisely, we monitored the dissipation of a membrane potential induced in liposomes composed of azolectin, a crude phospholipid mixture from soy bean.

axotomized nerve cords = experiment: regeneration of axotomized leech nerve cord ex vivo (time-lapse); design: species or system Hirudo medicinalis; conditions: native neuromacin 4 μM, aseptic conditions; 4 days without neuromacin
Experimental: Collection and treatment of the nerve cords: Adult leeches, Hirudo medicinalis species, weighting 2-3 g were purchased from a commercial supplier (Ricarampex, France). Animals were kept in artificial pond water and starved up to 3 weeks before use. Leeches were anaesthetised in 10% ethanol-spring water for 20 min and the nerve cords were removed according to the protocol of Nicholls et al (J Neurophysiol, 1968, 31:740-756.). After three successive baths in antibiotics, cords were placed in Leibowitz-15 (L-15, Gibco) culture medium supplemented with 2% fetal calf serum, 0.6% glucose and gentamicin ([…]) (Nature, 1979, 281:67-69). Connectives between ganglia were injured in a standard manner using a pair of sterilized fine iridectomy scissors. Axotomized nerve cords were separately incubated in L-15 medium containing different microbial components: 3×10^7 CFU/ml of heat killed or live bacteria, 10 μg/ml of polyI:C (Invivogen), 100 μg/ml of zymosan (Invivogen,) and 100 μg/ml of mannane (Invivogen) for different time (t=0 to t=8 days) at room temperature. Incubations without microbial components or bacteria were performed in the same conditions as controls. All the steps were performed under sterile conditions. […]

B. megaterium = experiment: SYTOX Green membrane permeabilization assay; type: cell-based, Bacillus megaterium
Experimental: FIG. 5 illustrates membrane permeabilization of B. megaterium induced by neuromacin. Membrane damage of the bacteria was measured fluorometrically using the dye SYTOX Green. […] Antibacterial activity of the peptides is expressed as a percentage of permeabilized bacteria. (A) Time kinetics of membrane permeabilization induced by neuromacin measured for different doses at various incubation periods. (B) Membrane permeabilizing effects of neuromacin (rhombs) in comparison with cecropin P1 (triangles) and magainin II (circles) after 30 min of incubation of B. megaterium with each peptide at various concentrations, at pH 5.2 (open symbols) and at pH 7.4 (closed symbols). […]
(§1) Antimicrobial assays: After each purification step, antibacterial activity was monitored by a solid plate assay as described in previous studies (14). The minimal inhibitory concentration (MIC) and the minimal bactericidal concentration (MBC) were determined according to the method of Hancock (http://cmdr.ubc.ca/bobh/showmethod.php?methodid=79). […]
No activity was found towards the Gram negative A. hydrophila at the same concentration. […] Since neuromacin contains four histidine residues in its primary structure (in contrast to none in theromacin), we evaluated the effect of a more acidic pH, at which the histidine residues are protonated, on the membrane-permeabilizing activity (FIG. 5B). […]

[2] = test system: Gram negative A. hydrophila; experiment: liquid growth inhibition assay; type: cell-based, Aeromonas hydrophila; conditions: at the same concentration as against M. nishinomiyaensis
Source text: Microorganisms: The Gram-positive and Gram-negative bacteria Micrococcus nishinomiyaensis and Aeromonas hydrophila respectively were isolated from the natural environment of Hirudo medicinalis. These bacterial colonies, which are present in the water, were selected from agar plate under aerobic conditions at room temperature using a random isolation grid. The Gram-positive bacteria Bacillus megaterium was used for the SYTOX Green assay.
as §1
No activity was found towards the Gram negative A. hydrophila at the same concentration. […] Since neuromacin contains four histidine residues in its primary structure (in contrast to none in theromacin), we evaluated the effect of a more acidic pH, at which the histidine residues are protonated, on the membrane-permeabilizing activity (FIG. 5B). […] Similar activity against the Gram-negative representative E. coli was not detected up to a neuromacin concentration of 25 μM (data not shown). […]

In the case of `CC(=O)NC(C)(C)C(=O)N1CCC[C@H]1C(=O)NC(C)(C)C(=O)N[C@@H](C)C(=O)NC(C)(C)C(=O)N[C@@H](C)C(=O)N[C@@H](CCC(N)=O)C(=O)NC(C)(C)C(=O)N[C@H](C(=O)NC(C)(C)C(=O)NCC(=O)N[C@@H](CC(C)C)C(=O)NC(C)(C)C(=O)N1CCC[C@H]1C(=O)N[C@H](C(=O)NC(C)(C)C(=O)NC(C)(C)C(=O)N[C@@H](CCC(=O)O)C(=O)N[C@@H](CCC(N)=O)C(=O)N[C@H](CO)Cc1ccccc1)C(C)C)C(C)C` [alamethicin, reference compound] (Ac-[Aib]P[Aib]A[Aib]AQ[Aib]V[Aib]GL[Aib]PV[Aib][Aib]EQ[Phe(ol)]), the pore-forming activity ([1]; positive control at 50 nM (data not shown)) is reported as “very strong signal”.

In the case of “H-DCYEDWSRCTPGTSFLTGILWKDCHSRCKELGHRGGRCVDSPSKHCPGVLKNNKQCHCY (disulfide 2-46, 9-38, 24-56, 28-58) [neuromacin]”, the pore-forming activity ([1]; final concentrations up to 2 μM (data not shown)) is reported as “not detected”, the “start of reconnection post-axotomy” value (axotomized nerve cords) is reported as “less than 24 hours” and the “activity relative to cecropin P1 and magainin II” value (B. megaterium; B. megaterium, within the measurement period) is reported as “over one order of magnitude lower”. The “efficacy to induce membrane lesions, effect of pH” value (B. megaterium; pH 5.2 versus pH 7.4, FIG. 5B) was “weaker at pH 5.2 than at pH 7.4” and the “activity towards A. hydrophila” value [2] was “No activity”.
